These molecules were tested against [Pyruvate dehydrogenase (acetyl-transferring)] kinase isozyme 1, mitochondrial (Homo sapiens, UniProt Q15118) (assay: Binding affinity to pyruvate dehydrogenase kinase 1 (unknown origin) incubated for 90 mins by VER-00160364 probe based fluorescence polarization assay).
[Pyruvate dehydrogenase (acetyl-transferring)] kinase isozyme 1, mitochondrial, sequence (Q15118 whole entry): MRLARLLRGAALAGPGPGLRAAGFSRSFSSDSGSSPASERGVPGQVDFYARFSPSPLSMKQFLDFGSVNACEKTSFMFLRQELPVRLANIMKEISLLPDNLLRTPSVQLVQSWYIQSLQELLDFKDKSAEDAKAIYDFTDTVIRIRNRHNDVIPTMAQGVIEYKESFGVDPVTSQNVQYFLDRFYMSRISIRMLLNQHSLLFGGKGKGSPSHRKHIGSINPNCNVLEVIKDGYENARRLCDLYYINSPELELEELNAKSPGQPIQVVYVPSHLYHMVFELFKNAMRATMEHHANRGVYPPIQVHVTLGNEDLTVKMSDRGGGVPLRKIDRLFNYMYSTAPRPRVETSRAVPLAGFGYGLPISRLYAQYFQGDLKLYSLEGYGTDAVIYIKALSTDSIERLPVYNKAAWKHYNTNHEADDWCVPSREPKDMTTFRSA

Going from `COc1cnc(-c2ccc(N(Cc3cccnc3)C(=O)c3ccc(O)cc3O)cc2)cc1OC` to `COc1cc(-c2ccc(N(Cc3cccnc3)C(=O)c3ccc(O)cc3O)cc2)ncn1`, the IC50 rises from 100 nM to 1000 nM (10-fold).

`Cc1cc(C(=O)N(Cc2ccsc2)c2ccc(C(=O)N(C)C)cc2)c(O)cc1O` and `Cc1ccc(CN(C(=O)c2cc(Cl)c(O)cc2O)c2ccc(C(=O)N(C)C)cc2)cc1` are the same in IC50: 100 nM for the first, 100 nM for the second.

`COc1ccc2nc(-c3ccc(N(Cc4cccnc4)C(=O)c4ccc(O)cc4O)cc3)c(C)cc2c1` and `Cc1cc2cc(F)ccc2nc1-c1ccc(N(Cc2cccnc2)C(=O)c2ccc(O)cc2O)cc1` are the same in IC50: 100 nM for the first, 100 nM for the second.

Going from `COc1cc2ncnc(-c3ccc(N(Cc4cccnc4)C(=O)c4ccc(O)cc4O)cc3)c2cc1OC` to `O=C(c1ccc(O)cc1O)N(Cc1cccnc1)c1ccc(-c2ncnc3ccc(Cl)cc23)cc1`, the IC50 falls from 1000 nM to 100 nM (10-fold).

`CN(C)C(=O)c1ccc(N(CC2CCCC2)C(=O)c2ccc(O)cc2O)cc1` and `CN(C)C(=O)c1ccc(N(Cc2cccnc2)C(=O)c2ccc(O)cc2O)cc1` are the same in IC50: 100 nM for the first, 100 nM for the second.

`CN(C)C(=O)c1ccc(N(Cc2cccc3c2cnn3C)C(=O)c2ccc(O)cc2O)cc1` and `CN(Cc1cccc2ncccc12)C(=O)c1ccc(N(Cc2cccnc2)C(=O)c2ccc(O)cc2O)cc1` are the same in IC50: 100 nM for the first, 100 nM for the second.

`Cc1cc(S(=O)(=O)N2CCN(C)CC2)cnc1-c1ccc(N(Cc2cccnc2)C(=O)c2ccc(O)cc2O)cc1` and `Cc1cc(S(=O)(=O)N2CCOCC2)cnc1-c1ccc(N(Cc2cccnc2)C(=O)c2ccc(O)cc2O)cc1` are the same in IC50: 10 nM for the first, 10 nM for the second.

Going from `CN(Cc1ccc2nccnc2c1)C(=O)c1ccc(N(Cc2cccnc2)C(=O)c2ccc(O)cc2O)cc1` to `CN(Cc1ccc2ncccc2c1)C(=O)c1ccc(N(Cc2cccnc2)C(=O)c2ccc(O)cc2O)cc1`, the IC50 rises from 10 nM to 100 nM (10-fold).

`CN(Cc1ccc2ccccc2n1)C(=O)c1ccc(N(Cc2cccnc2)C(=O)c2ccc(O)cc2O)cc1` and `CN(Cc1ccc2ccccc2n1)C(=O)c1ccc(N(Cc2ccccc2)C(=O)c2ccc(O)cc2O)cc1` are the same in IC50: 100 nM for the first, 100 nM for the second.

First: CN(C)C(=O)c1ccc(N(Cc2ccccn2)C(=O)c2cc(Cl)c(O)cc2O)cc1
Second: CN(C)C(=O)c1ccc(N(Cc2ccccc2)C(=O)c2cc(Cl)c(O)cc2O)cc1
The IC50 of the first is 10-fold higher: 100 nM for the first, 10 nM for the second.

`Cc1nc(-c2ccc(N(Cc3cccnc3)C(=O)c3ccc(O)cc3O)cc2)c2ccccc2n1` and `NC(=O)c1nc(-c2ccc(N(Cc3cccnc3)C(=O)c3ccc(O)cc3O)cc2)c2ccccc2n1` are the same in IC50: 100 nM for the first, 100 nM for the second.

`COc1cnc(Cl)nc1-c1ccc(N(Cc2ccccc2)C(=O)c2ccc(O)cc2O)cc1` and `COc1cnc(Cl)nc1-c1ccc(N(Cc2ccsc2)C(=O)c2ccc(O)cc2O)cc1` are the same in IC50: 100 nM for the first, 100 nM for the second.

Compared with `Cc1cc(S(=O)(=O)N2CC(F)(F)C2)cnc1-c1ccc(N(Cc2ccsc2)C(=O)c2ccc(O)cc2O)cc1`, `Cc1cc(S(=O)(=O)N2CCC(F)(F)CC2)cnc1-c1ccc(N(Cc2cccnc2)C(=O)c2ccc(O)cc2O)cc1` is 10-fold lower in IC50: 100 nM for the first, 10 nM for the second. The second is the more potent here.

First: Cc1cc(C(=O)Nc2ccc(N(Cc3ccccc3)C(=O)c3ccc(O)cc3O)cc2)no1
Second: O=C(Nc1ccc(N(Cc2ccccc2)C(=O)c2ccc(O)cc2O)cc1)c1ccccc1
The IC50 of the first is 10-fold higher: 10000 nM for the first, 1000 nM for the second.

First: Cc1cnc(Cl)nc1-c1ccc(N(C(=O)c2ccc(O)cc2O)C(C)c2ccccc2)cc1 (stereo unspecified)
Second: Cc1ncc(C)c(-c2ccc(N(Cc3ccccc3)C(=O)c3ccc(O)cc3O)cc2)n1
The IC50 of the first is 10-fold higher: 1000 nM for the first, 100 nM for the second.

Going from `CCNc1cc(-c2ccc(N(Cc3ccsc3)C(=O)c3ccc(O)cc3O)cc2)ncn1` to `Nc1nccc(-c2ccc(N(Cc3ccsc3)C(=O)c3ccc(O)cc3O)cc2)n1`, the IC50 falls from 10000 nM to 1000 nM (10-fold). The second is the more potent here.

`Cc1cnc(Cl)nc1-c1ccc(N(Cc2ccc(CN3CCCC3)cc2)C(=O)c2ccc(O)cc2O)cc1` and `Cc1cnc(Cl)nc1-c1ccc(N(Cc2ccccc2)C(=O)c2cc(Cl)c(O)cc2O)cc1` are the same in IC50: 10 nM for the first, 10 nM for the second.

Compared with `Cc1cc(S(=O)(=O)NCc2ccccn2)cnc1-c1ccc(N(Cc2cccnc2)C(=O)c2ccc(O)cc2O)cc1`, `Cc1cc(S(=O)(=O)NCCN(C)C)cnc1-c1ccc(N(Cc2cccnc2)C(=O)c2ccc(O)cc2O)cc1` is 10-fold higher in IC50: 10 nM for the first, 100 nM for the second.

`COc1ccc(CN(C)C(=O)c2ccc(N(Cc3ccsc3)C(=O)c3cc(Cl)c(O)cc3O)cc2)cc1` and `COc1ccc(CN(C)C(=O)c2ccc(N(Cc3ccccc3)C(=O)c3cc(Cl)c(O)cc3O)cc2)cc1` are the same in IC50: 100 nM for the first, 100 nM for the second.

`Cc1cc(N(Cc2ccccc2)C(=O)c2ccc(O)cc2O)ccc1-c1nc(Cl)ncc1C` and `Cc1cnc(Cl)nc1-c1ccc(N(Cc2ccccc2)C(=O)c2cc(C(F)(F)F)c(O)cc2O)cc1` are the same in IC50: 1000 nM for the first, 1000 nM for the second.

Compared with `Cc1cc2ccccc2nc1-c1ccc(N(Cc2cc(F)cc(F)c2)C(=O)c2ccc(O)cc2O)cc1`, `Cc1cc2ccccc2nc1-c1ccc(N(Cc2ccc(F)cc2)C(=O)c2ccc(O)cc2O)cc1` is 10-fold lower in IC50: 1000 nM for the first, 100 nM for the second. The second is the more potent here.

Compared with `O=C(c1ccc(O)cc1O)N(Cc1ccsc1)c1ccc(-c2ccnc3ccccc23)cc1`, `CN(Cc1ccc2ccccc2n1)C(=O)c1ccc(N(Cc2ccsc2)C(=O)c2ccc(O)cc2O)cc1` is 10-fold lower in IC50: 1000 nM for the first, 100 nM for the second. The second is the more potent here.

`O=C(c1ccc(O)cc1O)N(Cc1ccsc1)c1ccc(-c2ncnc3ccsc23)cc1` and `Cc1sc2ncnc(-c3ccc(N(Cc4ccsc4)C(=O)c4ccc(O)cc4O)cc3)c2c1C` are the same in IC50: 1000 nM for the first, 1000 nM for the second.

`CCCc1cncnc1-c1ccc(N(Cc2ccccc2)C(=O)c2ccc(O)cc2O)cc1` and `N#Cc1cncnc1-c1ccc(N(Cc2ccccc2)C(=O)c2ccc(O)cc2O)cc1` are the same in IC50: 1000 nM for the first, 1000 nM for the second.

First: O=C(c1ccc(O)cc1O)N(Cc1ccccc1)c1ccc(-c2nc3ccccc3nc2C(F)(F)F)cc1
Second: O=C(c1ccc(O)cc1O)N(Cc1ccccc1)c1ccc(-c2cnc3ccccc3n2)cc1
The IC50 of the first is 10-fold lower: 1000 nM for the first, 10000 nM for the second.

`CN(Cc1cccc2cnccc12)C(=O)c1ccc(N(Cc2cccnc2)C(=O)c2ccc(O)cc2O)cc1` and `CN(Cc1cccc2cnccc12)C(=O)c1ccc(N(Cc2ccccc2)C(=O)c2ccc(O)cc2O)cc1` are the same in IC50: 100 nM for the first, 100 nM for the second.

First: Cc1cc2ccccc2nc1-c1ccc(N(Cc2ccc(-c3ccccc3)cc2)C(=O)c2ccc(O)cc2O)cc1
Second: Cc1cc2ccccc2nc1-c1ccc(N(Cc2ccccc2)C(=O)c2cc(Cl)c(O)cc2O)cc1
The IC50 of the first is 10-fold lower: 100 nM for the first, 1000 nM for the second. The first is the more potent here.

Going from `O=C(c1ccc(O)cc1O)N(Cc1cccnc1)c1ccc(-c2nc3ccc(Cl)cc3cc2CO)cc1` to `CCc1cc2ccccc2nc1-c1ccc(N(Cc2cccnc2)C(=O)c2ccc(O)cc2O)cc1`, the IC50 rises from 10 nM to 100 nM (10-fold).

`COc1ccc(-c2ccc(N(Cc3cccnc3)C(=O)c3ccc(O)cc3O)cc2)c(Cl)c1` and `Cc1ccc(-c2ccc(N(Cc3cccnc3)C(=O)c3ccc(O)cc3O)cc2)c(Cl)c1` are the same in IC50: 1000 nM for the first, 1000 nM for the second.

`Cc1cccnc1-c1ccc(N(Cc2ccccc2)C(=O)c2ccc(O)cc2O)cc1` and `Cc1cccnc1-c1ccc(N(Cc2ccccc2)C(=O)c2cc(Cl)c(O)cc2O)cc1` are the same in IC50: 1000 nM for the first, 1000 nM for the second.

`Cc1nc(C)c(-c2ccc(N(Cc3cccnc3)C(=O)c3ccc(O)cc3O)cc2)s1` and `Cc1ccc(C)c(-c2ccc(N(Cc3cccnc3)C(=O)c3ccc(O)cc3O)cc2)n1` are the same in IC50: 1000 nM for the first, 1000 nM for the second.

Compared with `CC(=O)Nc1ccc(-c2ccc(N(Cc3cccnc3)C(=O)c3ccc(O)cc3O)cc2)c(C)c1`, `CCc1cnc(C)nc1-c1ccc(N(Cc2cccnc2)C(=O)c2ccc(O)cc2O)cc1` is 10-fold lower in IC50: 100 nM for the first, 10 nM for the second.

First: CN(Cc1cccc2ccccc12)C(=O)c1ccc(N(Cc2ccsc2)C(=O)c2ccc(O)cc2O)cc1
Second: O=C(c1ccc(O)cc1O)N(Cc1ccccc1)c1ccc(-c2nc(-c3ccsc3)nc3ccccc23)cc1
The IC50 of the first is 10-fold higher: 1000 nM for the first, 100 nM for the second. The second is the more potent here.

Compared with `Cc1cc2[nH]c(=O)[nH]c2cc1-c1ccc(N(Cc2ccccc2)C(=O)c2ccc(O)cc2O)cc1`, `CNS(=O)(=O)c1cnc(-c2ccc(N(Cc3ccccc3)C(=O)c3ccc(O)cc3O)cc2)c(C)c1` is 100-fold lower in IC50: 10000 nM for the first, 100 nM for the second.

Going from `Cc1cnc(-c2cccc(F)c2)nc1-c1ccc(N(Cc2ccccc2)C(=O)c2ccc(O)cc2O)cc1` to `O=C(c1ccc(O)cc1O)N(Cc1ccccc1)c1ccc(-c2ncnc3ccc(Cl)cc23)cc1`, the IC50 falls from 1000 nM to 100 nM (10-fold).

Going from `O=C(Nc1ccc(N(Cc2ccccc2)C(=O)c2ccc(O)cc2O)cc1)c1cc2ccccc2s1` to `CNC(=O)c1ccc(N(Cc2ccccc2)C(=O)c2ccc(O)cc2O)cc1`, the IC50 falls from 10000 nM to 1000 nM (10-fold). The second is the more potent here.

`O=C(c1ccc(O)cc1O)N(Cc1cccnc1)c1ccc(-c2ccc(N3CCCC3)nn2)cc1` and `O=C(c1ccc(O)cc1O)N(Cc1ccccc1)c1ccc(-c2ccc(-n3ccnc3)nn2)cc1` are the same in IC50: 100 nM for the first, 100 nM for the second.

`CN(C)C(=O)c1ccc(N(Cc2ccc(F)cc2)C(=O)c2cc(Cl)c(O)cc2O)cc1` and `CN(C)C(=O)c1ccc(N(CCN2CCCCC2)C(=O)c2cc(Cl)c(O)cc2O)cc1` are the same in IC50: 100 nM for the first, 100 nM for the second.

`Cc1cc(S(=O)(=O)NCc2ccccc2)cnc1-c1ccc(N(Cc2ccccc2)C(=O)c2ccc(O)cc2O)cc1` and `Cc1cc(S(=O)(=O)NCc2ccccc2)cnc1-c1ccc(N(Cc2ccsc2)C(=O)c2ccc(O)cc2O)cc1` are the same in IC50: 100 nM for the first, 100 nM for the second.

`O=C(c1ccc(O)cc1O)N(Cc1cccnc1)c1ccc(-c2nncc3ccccc23)cc1` and `N#Cc1cncnc1-c1ccc(N(Cc2cccnc2)C(=O)c2ccc(O)cc2O)cc1` are the same in IC50: 100 nM for the first, 100 nM for the second.

Going from `Cc1cc(C(=O)N(Cc2ccsc2)c2ccc(C(=O)N(C)Cc3ccc4nccnc4c3)cc2)c(O)cc1O` to `COc1ccc2nc(-c3ccc(N(Cc4ccsc4)C(=O)c4ccc(O)cc4O)cc3)c(C)cc2c1`, the IC50 rises from 10 nM to 100 nM (10-fold). The first is the more potent here.

Compared with `CSc1nc(Cl)cc(-c2ccc(N(Cc3cccnc3)C(=O)c3ccc(O)cc3O)cc2)n1`, `CSc1nc2c(c(-c3ccc(N(Cc4cccnc4)C(=O)c4ccc(O)cc4O)cc3)n1)CCC2` is 10-fold lower in IC50: 1000 nM for the first, 100 nM for the second.

Going from `CCc1cnc(C)nc1-c1ccc(N(Cc2ccccc2)C(=O)c2ccc(O)cc2O)cc1` to `CCOC(=O)c1nc(-c2ccc(N(Cc3ccccc3)C(=O)c3ccc(O)cc3O)cc2)c2ccccc2n1`, the IC50 rises from 100 nM to 10000 nM (100-fold). The first is the more potent here.

`O=C(c1ccc(O)cc1O)N(Cc1ccccc1)c1ccc(-c2ccc(NC3CC3)nn2)cc1` and `O=C(c1ccc(N(Cc2ccccc2)C(=O)c2ccc(O)cc2O)cc1)N1CCC(O)CC1` are the same in IC50: 100 nM for the first, 100 nM for the second.

Going from `Cc1nccnc1-c1ccc(N(Cc2cccnc2)C(=O)c2ccc(O)cc2O)cc1` to `COCCN(C)S(=O)(=O)c1cnc(-c2ccc(N(Cc3cccnc3)C(=O)c3ccc(O)cc3O)cc2)c(C)c1`, the IC50 falls from 100 nM to 10 nM (10-fold). The second is the more potent here.

In the case of `O=C(NC1CC1)c1ccc(N(Cc2cccnc2)C(=O)c2ccc(O)cc2O)cc1`, the IC50 is reported as 1000 nM.

Source: ChEMBL document CHEMBL3727364, “Resorcinol n-aryl amide compounds, for use as pyruvate dehydrogenase kinase inhibitors” (2015)
